# Source: US9108936B2, “Substituted 4-aminobenzamides as KCNQ2/3 modulators” (GRUENENTHAL GMBH, priority 2012, dated 2015)
# Target: T1, KCNQ2/3 channels (Homo sapiens, UniProt O43525+O43526)
# T1 construct: expressed in transfected cells; host or cells: CHO-K1
# Assay: Fluorescence assay using a voltage sensitive dye (fluorimetry)
# Assay type: cell-based
# Settings: CHO-K1 cells expressing KCNQ2/3; for Emax: plateau effect relative to saturated Retigabine (50 μM), read-out: Fluorimetry % efficacy (retigabine = 100%); for EC50: voltage-sensitive dye, KCl depolarization, read-out: Fluorimetry EC50/IC50
# Source text: Method I. Fluorescence Assay Using a Voltage Sensitive Dye (Fluorimetry)
# The modulation of the KCNQ opening state (and consequently the voltage potential of a cell) by test compounds such as compounds according to the present invention results in an increased or reduced amount of a voltage-sensitive dye in the cytoplasm of the cells tested. These voltage-sensitive dyes are fluorescent dyes and, therefore, are forming the link between cell potential influenced by KCNQ modulation and fluorescence intensity. A KCNQ agonist leads to an opening of the channel, potassium and dye efflux, a following hyperpolarization and a reduction of the inner fluorescence intensity in a kinetic protocol. If applying an ion jump by KCl depolarization, KCNQ agonists increase the ΔF/F value. An antagonist performs vice versa, respectively.
# The ‘fluorimetry EC50’ is the half maximum effective concentration (EC50), where the concentration of a drug/compound induces a response halfway between the baseline and maximum plateau effect. In other words, said value represents the concentration of a compound, where 50% of its maximal effect in the fluorimetric assay is observed if the substance concentration is graphed against the corresponding ΔF/F values (for which the calculation method is described below). Therefore, ‘fluorimetry EC50’ is a measure for the compound potency. The compound efficacy is mirrored by ‘fluorimetry % efficacy’ (‘% Efficacy’) and refers to the maximum response achievable by the test compound, i.e. the plateau effect. This drug's plateau effect is related to the plateau effect, which can be achieved by applying a saturated concentration of a reference compound, e.g. Retigabine (50 μM), in independent wells of the same experimental plate or series. A compound showing 100% efficacy is as efficacious as the reference compound (Retigabine) with a saturated concentration.
# […] CHO-K1 cells expressing KCNQ2/3 channels are cultivated adherently at 37° C., 5% CO2 and 95% humidity in cell culture bottles (e.g. 80 cm^2 TC flasks, Nunc) with DMEM-high glucose (Sigma Aldrich, D7777) including 10% FCS (PAN Biotech, e.g. 3302-P270521) or alternatively MEM Alpha Medium (1×, liquid, Invitrogen, #22571), 10% fetal calf serum (FCS) (Invitrogen, #10270-106, heat-inactivated) and the necessary selection antibiotics.
# Before being sown out for the measurements, the cells are washed with 1× DPBS buffer Ca^2+/Mg^2+-free (e.g. Invitrogen, #14190-094) and detached from the bottom of the culture vessel by using Accutase (PAA Laboratories, #L11-007) (incubation with Accutase for 15 min at 37° C.). The cell number is determined using a CASY™ cell counter (TCC, Schärfe System). Depending on the optimal density for each individual cell line, 20,000-30,000 cells/well/100 μl are seeded onto 96-well Corning™ CellBIND™ assay plates (Flat Clear Bottom Black Polystyrene Microplates, #3340). Freshly seeded cells are then left to settle for one hour at room temperature, followed by incubation for 24 hours at 37° C., 5% CO2 and 95% humidity.
# The voltage-sensitive fluorescent dye from the Membrane Potential Assay Kit (Red™ Bulk format part R8123 for FLIPR, MDS Analytical Technologies™) is prepared by dissolving the contents of one vessel Membrane Potential Assay Kit Red Component A in 200 ml of extracellular buffer (ES buffer, 120 mM NaCl, 1 mM KCl, 10 mM HEPES, 2 mM CaCl2, 2 mM MgCl2, 10 mM glucose; pH 7.4). After removal of the nutrient medium, the cells are washed once with 200 μl of ES buffer, then loaded for 45 min at room temperature in 100 μl of dye solution in the dark.
# Fluorescence measurements are carried out in a BMG Labtech FLUOstar™, BMG Labtech NOVOstar™ or BMG Labtech POLARstar™ instrument (525 nm excitation, 560 nm emission, Bottom Read mode). […]
SMILES,Emax [%],EC50 [nM]
"Cc1cc(N2CCOCC2)cc(C2CC2)c1C(=O)NCC(O)CC(C)(C)C (centres unmarked) [Example 32, 2-Cyclopropyl-N-(2-hydroxy-4,4-dimethyl-pentyl)-6-methyl-4-morpholin-4-yl-benzamide]",159,3810
"CC(C)c1cc(N2CCOCC2)cc(F)c1C(=O)NCc1ccc(Cl)cc1 [Example 39, N-[(4-Chlorophenyl)-methyl]-2-fluoro-6-isopropyl-4-morpholin-4-yl-benzamide]",196,217
"CCCc1cc(N2CCOCC2)cc(C)c1C(=O)NCc1ccc(Cl)cc1 [Example 13, N-[(4-Chlorophenyl)-methyl]-2-methyl-4-morpholin-4-yl-6-propyl-benzamide]",183,217
"Cc1cc(N2CCOCC2)cc(C2CC2)c1C(=O)NCc1ccc(C(F)(F)F)cc1 [Example 24, 2-Cyclopropyl-6-methyl-4-morpholin-4-yl-N-[[4-(trifluoromethyl)-phenyl]-methyl]-benzamide]",134,693
"CC[S+]([O-])c1cc(N2CCOCC2)cc(C)c1C(=O)NCCCC(C)(C)C (centres unmarked) [Example 7, N-(4,4-Dimethyl-pentyl)-2-(ethylsulfinyl)-6-methyl-4-morpholin-4-yl-benzamide]",66,8800
"CCc1cc(N2CCOCC2)cc(C)c1C(=O)NCc1ccc(Cl)cc1 [Example 12, N-[(4-Chlorophenyl)-methyl]-2-ethyl-6-methyl-4-morpholin-4-yl-benzamide]",169,369
"Cc1cc(N2CCCCC2)cc(C(F)(F)F)c1C(=O)NCc1cccc(F)c1 [Example 27, N-[(3-Fluorophenyl)-methyl]-2-methyl-4-piperidin-1-yl-6-(trifluoromethyl)-benzamide]",197,673
"Cc1cc(N2CCOCC2)cc(C2CC2)c1C(=O)NCc1ccc(Cl)cc1 [Example 15, N-[(4-Chlorophenyl)-methyl]-2-cyclopropyl-6-methyl-4-morpholin-4-yl-benzamide]",170,552
"Cc1cc(N2CCOCC2)cc(C2CC2)c1C(=O)NCc1ccc(OC(F)(F)F)cc1 [Example 25, 2-Cyclopropyl-6-methyl-4-morpholin-4-yl-N-[[4-(trifluoromethyloxy)-phenyl]-methyl]-benzamide]",144,355
"Cc1cc(N2CCOCC2)cc(C2CCCC2)c1C(=O)NCc1ccc(Cl)cc1 [Example 16, N-[(4-Chlorophenyl)-methyl]-2-cyclopentyl-6-methyl-4-morpholin-4-yl-benzamide]",194,33
"CCSc1cc(N2CCOC[C@H]2C)cc(C)c1C(=O)NCCCC(C)(C)C [Example 5, N-(4,4-Dimethyl-pentyl)-2-ethylsulfanyl-6-methyl-4-[(3R)-3-methyl-morpholin-4-yl]-benzamide]",246,108
"Cc1cc(N2CCOCC2)cc(C2CC2)c1C(=O)NCC[C@@H](O)C(C)(C)C [Example 28, 2-Cyclopropyl-N-[(3R)-3-hydroxy-4,4-dimethyl-pentyl]-6-methyl-4-morpholin-4-yl-benzamide]",155,4660
"COc1cc(N2CCOCC2)cc(C)c1C(=O)NCc1ccc(Cl)cc1 [Example 10, N-[(4-Chlorophenyl)-methyl]-2-methoxy-6-methyl-4-morpholin-4-yl-benzamide]",147,1640
"Cc1cc(N2CCOCC2)cc(N2CC[C@@H](F)C2)c1C(=O)NCc1ccc(Cl)cc1 [Example 38, N-[(4-Chlorophenyl)-methyl]-2-[(3R)-3-fluoro-pyrrolidin-1-yl]-6-methyl-4-morpholin-4-yl-benzamide]",167,748
"CCSc1cc(N2CCOCC2)cc(C)c1C(=O)NCc1ccc(Cl)cc1 [Example 2, N-[(4-Chlorophenyl)-methyl]-2-ethylsulfanyl-6-methyl-4-morpholin-4-yl-benzamide]",152,483
"CCSc1cc(N2CCOC[C@H]2C)cc(C)c1C(=O)NCc1ccc(Cl)cc1 [Example 4, N-[(4-Chlorophenyl)-methyl]-2-ethylsulfanyl-6-methyl-4-[(3R)-3-methyl-morpholin-4-yl]-benzamide]",200,260
"Cc1cc(N2CCOCC2)cc(C(F)(F)F)c1C(=O)NCc1ccc(Cl)cc1 [Example 19, N-[(4-Chlorophenyl)-methyl]-2-methyl-4-morpholin-4-yl-6-(trifluoromethyl)-benzamide]",185,400
"Cc1cc(N2CCOCC2)cc(C(C)C)c1C(=O)NCc1ccc(C(F)(F)F)cc1 [Example 22, 2-Isopropyl-6-methyl-4-morpholin-4-yl-N-[[4-(trifluoromethyl)-phenyl]-methyl]-benzamide]",148,184
"CCS(=O)(=O)c1cc(N2CCOCC2)cc(C)c1C(=O)NCCCC(C)(C)C [Example 9, N-(4,4-Dimethyl-pentyl)-2-(ethylsulfonyl)-6-methyl-4-morpholin-4-yl-benzamide]",65,9300
"Cc1cc(N2CCOCC2)cc(C2CCOC2)c1C(=O)NCc1ccc(Cl)cc1 (centres unmarked) [Example 37, N-[(4-Chlorophenyl)-methyl]-2-methyl-4-morpholin-4-yl-6-tetrahydro-furan-3-yl-benzamide]",166,1690
"Cc1cc(N2CCOCC2)cc(C(C)C)c1C(=O)NCC[C@@H](O)C(C)(C)C [Example 30, N-[(3R)-3-Hydroxy-4,4-dimethyl-pentyl]-2-isopropyl-6-methyl-4-morpholin-4-yl-benzamide]",212,3100
"CCOc1cc(N2CCOCC2)cc(C)c1C(=O)NCc1ccc(Cl)cc1 [Example 11, N-[(4-Chlorophenyl)-methyl]-2-ethoxy-6-methyl-4-morpholin-4-yl-benzamide]",141,1350
"Cc1cc(N2CCOCC2)cc(C(C)C)c1C(=O)NCc1ccc(OC(F)(F)F)cc1 [Example 23, 2-Isopropyl-6-methyl-4-morpholin-4-yl-N-[[4-(trifluoromethyloxy)-phenyl]-methyl]-benzamide]",161,139
"CCSc1cc(N2CCOCC2)cc(C)c1C(=O)NCCCC(C)(C)C [Example 3, N-(4,4-Dimethyl-pentyl)-2-ethylsulfanyl-6-methyl-4-morpholin-4-yl-benzamide]",220,335
"CCS(=O)(=O)c1cc(N2CCOCC2)cc(C)c1C(=O)NCc1ccc(Cl)cc1 [Example 8, N-[(4-Chlorophenyl)-methyl]-2-(ethylsulfonyl)-6-methyl-4-morpholin-4-yl-benzamide]",88,5560
"Cc1cc(N2CCOCC2)cc(C(C)C)c1C(=O)NCc1ccc(Cl)cn1 [Example 34, N-[(5-Chloro-pyridin-2-yl)-methyl]-2-isopropyl-6-methyl-4-morpholin-4-yl-benzamide]",156,3610
"Cc1cc(N2CCOCC2)cc(C(C)C)c1C(=O)NCc1ccc(C(F)(F)F)cn1 [Example 35, 2-Isopropyl-6-methyl-4-morpholin-4-yl-N-[[5-(trifluoromethyl)-pyridin-2-yl]-methyl]-benzamide]",134,3070
"Cc1cc(N2CCOCC2)cc(C(C)C)c1C(=O)NCC(O)CC(C)(C)C (centres unmarked) [Example 33, N-(2-Hydroxy-4,4-dimethyl-pentyl)-2-isopropyl-6-methyl-4-morpholin-4-yl-benzamide]",216,1370
